The record followed here is patent US9162992B2, “Compounds and compositions for treatment of breathing control disorders or diseases” (GALLEON PHARMACEUTICALS, INC., priority 2010, dated 2015).

The test has as its system spontaneously breathing rats. Nature of the test: Minute ventilation (MV) and cardiovascular parameters in naive rats. The test is classed as in vivo, rat. Also noted: unit not given here. The protocol: All surgical procedures were performed under anesthesia induced by 2% isoflurane in compressed medical grade air. With rats in supine position, the right femoral vein was catheterized using polyethylene tubing (PE-50). This catheter was used for fluid and drug administration. Simultaneously, the right femoral artery was also catheterized for monitoring blood pressure and heart rate. In order to measure the respiratory parameters in spontaneously breathing rats, trachea was intubated using 13 gauge tracheal tube (2.5 mm ID, Instech Solomon, Pa.).
After establishing a stable base-line at 1.5% isoflurane, compounds (typically at a dose of 1 mpk) were administered IV, and ventilatory parameters were generated from spontaneously breathing rats, along with cardiovascular output (mean arterial pressure (MAP) and heart rate). Maximum peak minute ventilatory (MV) responses (MPR), along with changes in minute ventilation versus baseline (AMV) were obtained as shown in the tables below.

Where [1] appears, read: 1 mpk IV, 20% HPβCD, pH not given.
[2] abbreviates: Table 8, 1 mpk, 20% HPβCD, pH 4.
[3] abbreviates: Table 8, 1 mpk, 20% HPβCD, pH 4.5.
Where [4] appears, read: Table 8, 1 mpk, 20% HPβCD, pH 6.

Each structure is given as a SMILES string. Where a name gives a salt, the structure may show the parent alone.

Consider `C=CCNc1nc(NOC)c2ccn(C)c2n1` [CLX, N-(2-(Propen-2-yl)amino-7-methyl-pyrrolo[2,3d]pyrimidin-4-yl)-O-methyl-hydroxylamine], for which, under “1 mpk IV, 20% HPβCD, pH 5”, the “MV MPR” value was determined as 182 and the “MV ΔMV” value amounted to 103.
With `CCCNc1nc(NCCC)nc(N(C)OC(C)C)n1` [LXIV, N-(4,6-Bis-n-propylamino-[1,3,5]triazin-2-yl)-O-isopropyl-N-methyl-hydroxylamine], under setting [1], the “MV MPR” value came out at 271 and the “MV ΔMV” value came to 209.
Regarding `CCCNc1nc(NC(C)C)c2ccn(C)c2n1` [N^4-isopropyl-7-methyl-N^2-n-propyl-7H-pyrrolo[2,3-d]pyrimidine-2,4-diamine], for the setting “1 mpk IV, 20% HPβCD, pH 5”, the “MV MPR” value came to 402 and the “MV ΔMV” value is reported as 320.
In the case of `CCCNc1nc(NCC)nc(NOC)n1` [N^2-ethyl-6-(methoxyamino)-N^4-n-propyl-1,3,5-triazine-2,4-diamine], under “1 mpk IV, 20% HPβCD, pH 4-6”, the “MV MPR” value stood at 208 and the “MV ΔMV” value is 117.
Turning to `CCCNc1nc(N(C)OC)c2cc[nH]c2n1` [CXLI, N-(2-Propylamino-7H-pyrrolo[2,3d]pyrimidin-4-yl)-N,O-dimethyl-hydroxylamine], for the setting “1 mpk IV, 20% HPβCD, pH 4-6”, the “MV MPR” value stood at 264 and the “MV ΔMV” value is recorded as 163.
For `CNc1nc(NC)nc(N(C)OC)n1` [XX, N-(4,6-Bis-methylamino-[1,3,5]triazin-2-yl)-N,O-dimethyl-hydroxylamine hydrochloride] the same measures were 213 and 60.
Regarding `CCCNc1nc(NCCC)nc(N(C)NC)n1` [XLIX, N-(4,6-Bis-n-propylamino-[1,3,5]triazin-2-yl)-N,N′-dimethyl-hydrazine], under “1 mpk IV, 20% HPβCD, pH 5”, the “MV MPR” value is 338 and the “MV ΔMV” value was 216.
`CCCNc1nc(NCCC)nc(N(OCc2ccccc2)C(C)C)n1` [LXXII, 6-((Benzyloxy)(isopropyl)amino)-N^2,N^4-dipropyl-1,3,5-triazine-2,4-diamine]: under setting [2], the “MV DMV” value is 82 and the “MV MPR” value came out at 176.
As for `C=CCNc1nc(N2CCC(c3nc(NCCC)nc(NCCC)n3)CC2)c2ccn(C)c2n1` [6-(1-(2-(allylamino)-7-methyl-7H-pyrrolo[2,3-d]pyrimidin-4-yl)piperidin-4-yl)-N^2,N^4-di-n-propyl-1,3,5-triazine-2,4-diamine], under “1 mpk IV, 20% HPβCD, pH 5”, the “MV MPR” value is on record as 154 and the “MV ΔMV” value is given as 60.
In the case of `CCCNc1nc(N(C)N(C)C)c2ccn(C)c2n1` [7-methyl-N-n-propyl-4-(1,2,2-trimethylhydrazinyl)-7H-pyrrolo[2,3-d]pyrimidin-2-amine], the “MV MPR” value by setting is: (1 mpk IV, 15/65/20, pH 5) 167; (1 mpk IV, 20% HPβCD, pH 4) 175. Moreover, the “MV ΔMV” value reads like this: (1 mpk IV, 15/65/20, pH 5) 89; (1 mpk IV, 20% HPβCD, pH 4) 83.
In the case of `CCCNc1cc(N(C)OC)nc(NCCC)n1` [CXX], under “1 mpk IV, 20% HPβCD, pH 4-6”, the “MV MPR” value is given as 355 and the “MV ΔMV” value came out at 243. Under setting [3], the “MV DMV” value was 243 and the “MV MPR” value was 355.
For `CCCNc1nc(NCCC)nc(N(C)OCC(C)C)n1` [LXXXII, N-(4,6-Bis-n-propylamino-[1,3,5]triazin-2-yl)-O-isobutyl-N-methyl-hydroxylamine], where the note is “1 mpk IV, 20% HPβCD, pH 4”, the “MV MPR” value came out at 248 and the “MV ΔMV” value turned out to be 133. In addition, under setting [2], the “MV DMV” value was found to be 133 and the “MV MPR” value is recorded as 248.
As for `CCCNc1nc(NC(C)C)c2ccn(C(C)C)c2n1` [N^4,7-diisopropyl-N^2-n-propyl-7H-pyrrolo[2,3-d]pyrimidine-2,4-diamine], under “1 mpk IV, 20% HPβCD, pH 6”, the “MV MPR” value is 250 and the “MV ΔMV” value was 155.
With `CC(C)CNc1nc(NCC(C)C)nc(N2C3CCC2CC(=O)C3)n1` [(1,5)-8-(4,6-bis(isobutylamino)-1,3,5-triazin-2-yl)-8-azabicyclo[3.2.1]octan-3-one], for the setting “1 mpk IV, 20% HPβCD, pH 5”, the “MV MPR” value is given as 237 and the “MV ΔMV” value turned out to be 137.
For the compound `CCCNc1nc(NCCC)nc(N(CC)OC(C)C)n1` [LXXVI, N-(4,6-Bis-n-propylamino-[1,3,5]triazin-2-yl)-N-ethyl-O-isopropyl-hydroxylamine], under “1 mpk IV, 20% HPβCD, pH 4”, the “MV MPR” value is given as 308 and the “MV ΔMV” value is reported as 191. Besides, under setting [2], the “MV DMV” value was determined as 191 and the “MV MPR” value turned out to be 308.
For `CCCNc1nc(NC(C)C)c2c(n1)N(C)CC2` [CXXVI], under “1 mpk IV, 20% HPβCD, pH 5”, the “MV MPR” value was found to be 327 and the “MV ΔMV” value is listed as 224.
As for `CON(C)c1nc(NC2CC2)nc(NC2CC2)n1` [XXXIII, 4,6-Bis-N-cyclopropylamino-[1,3,5]triazin-2-yl)-N,O-dimethyl-hydroxylamine hydrochloride], where the note is “1 mpk IV, 20% HPβCD, pH 4-6”, the “MV MPR” value was 147 and the “MV ΔMV” value came out at 53.
Take `CCCNc1nc(NC)c2c(n1)N(C)CC2` [CXXXI, 2-(n-Propyl)amino-4-methylamino-7-methyl-pyrrolidino[2,3-d]pyrimidine]: where the note is “1 mpk IV, 20% HPβCD, pH 4”, the “MV MPR” value was 204 and the “MV ΔMV” value came out at 130.
Consider `COCCCNc1nc(NCCCOC)nc(N(C)OC)n1` [CXIII], for which, under setting [2], the “MV DMV” value came out at 46 and the “MV MPR” value is on record as 167.1.
As to `CCCNc1nc(NCCC)nc(N(C)OCc2cccs2)n1` [LXXXIV, 6-(Methyl(thiophen-2-ylmethoxy)amino)-N^2,N^4-di-n-propyl-1,3,5-triazine-2,4-diamine], under “1 mpk IV, 20% HPβCD, pH 4”, the “MV MPR” value is given as 213 and the “MV ΔMV” value is 110. Also, under setting [2], the “MV DMV” value is 110 and the “MV MPR” value worked out at 213.
Regarding `CCCNc1nc(N)nc(N(C)OC)n1` [XLVII, 6-(Methoxy(methyl)amino)-N2-propyl-1,3,5-triazine-2,4-diamine], where the note is “1 mpk IV, 20% HPβCD, pH 5”, the “MV MPR” value was 150.73 and the “MV ΔMV” value is 61.48.
Turning to `CCCNc1nc(NC(C)C)c2cc[nH]c2n1` [N^4-isopropyl-N^2-n-propyl-7H-pyrrolo[2,3-d]pyrimidine-2,4-diamine], where the note is “1 mpk IV, 20% HPβCD, pH 4”, the “MV MPR” value stood at 259 and the “MV ΔMV” value was found to be 172.
In the case of `CON(C)c1nc(NCC2CCOCC2)nc(NCC2CCOCC2)n1` [CXV], where the note is “Table 8, 1 mpk, 15/65/20, pH 4”, the “MV DMV” value was determined as 33.8 and the “MV MPR” value came to 155.7.
With `CCNc1nc(NCC)nc(N(C)OC)n1` [XXII, N-(4,6-Bis-ethylamino-[1,3,5]triazin-2-yl)-N,O-dimethyl-hydroxylamine hydrochloride], for the setting “1 mpk IV, 20% HPβCD, pH 4-6”, the “MV MPR” value was 252 and the “MV ΔMV” value is 130.
Regarding `CCCNc1nc(NCCC)nc(N(C)O)n1` [XLVIII, N-(4,6-Bis-n-propylamino-[1,3,5]triazin-2-yl)-N-methyl-hydroxylamine], for the setting “1 mpk IV, 15/65/20, pH 5”, the “MV MPR” value amounted to 114 and the “MV ΔMV” value came to 30.13.
As to `CON(C)c1nc2nc(n1)NCCOCCOCCOCCN2` [CXVII, N-(5,8,11-Trioxa-2,14,16,18,19-pentaazabicyclo[13.3.1]nonadeca-1(18),15 (19),16(17)-trien-17-yl)-N,O-dimethylhydroxylamine], under setting [3], the “MV DMV” value was found to be 15 and the “MV MPR” value was 143.8.
Consider `CCCNc1nc(NCCC)c2cc[nH]c2n1`, for which, for the setting “1 mpk IV, 20% HPβCD, pH 4-6”, the “MV MPR” value came out at 336 and the “MV ΔMV” value was 164.
In the case of `CCCNc1nc2c(c(N3CCC(O)CC3)n1)CCN2C` [CLII, 2-(n-Propyl)amino-4-(4-hydroxypiperidin-1-yl)-7-methyl-pyrrolidino[2,3-d]pyrimidine], under “1 mpk IV, 20% HPβCD, pH 4”, the “MV MPR” value was determined as 49 and the “MV ΔMV” value is recorded as 0.33.
As for `CCCNc1nc(NCCC)nc(N2C3CCC2CC(=O)C3)n1` [(1,5)-8-(4,6-bis(n-propylamino)-1,3,5-triazin-2-yl)-8-azabicyclo[3.2.1]octan-3-one], where the note is “1 mpk IV, 20% HPβCD, pH 5”, the “MV MPR” value is given as 213 and the “MV ΔMV” value stood at 98.
For `CCCNc1nc2c(c(N3C4CCC3CC(O)C4)n1)CCN2C` (stereo not drawn) [CLV, 8-(7-methyl-2-(n-propylamino)-pyrrolidino[2,3-d]pyrimidin-4-yl)-8-azabicyclo[3.2.1]octan-3-ol], for the setting “1 mpk IV, 20% HPβCD, pH 4”, the “MV MPR” value is recorded as 170 and the “MV ΔMV” value is recorded as 57.
As for `CCCNc1nc(NC(C)C)c2c(n1)N(C(C)C)CC2` [CXXXVI, 2-(n-Propyl)amino-4-(i-propyl)amino-7-i-propyl-pyrrolidino[2,3-d]pyrimidine], under “1 mpk IV, 20% HPβCD, pH 4”, the “MV MPR” value was 238 and the “MV ΔMV” value was 143.
Turning to `CON(C)c1nc(NCC(C)C)nc(NCC(C)C)n1` [XXIX, N-(Bis-4,6-(2-methylpropylamino)) [1,3,5]triazin-2-yl)-N,O-dimethyl-hydroxylamine hydrochloride], for the setting “1 mpk IV, 20% HPβCD, pH 4-6”, the “MV MPR” value is given as 253 and the “MV ΔMV” value stood at 161.
With `CCCNc1nc(NCCC)nc(N(C)OCC2CC2)n1` [XCI, N-(4,6-Bis-n-propylamino-[1,3,5]triazin-2-yl)-O-cyclopropylmethyl-N-methyl-hydroxylamine], where the note is “1 mpk IV, 20% HPβCD, pH 4”, the “MV MPR” value amounted to 261 and the “MV ΔMV” value is 152. Further, under setting [2], the “MV DMV” value is recorded as 152 and the “MV MPR” value amounted to 261.
In the case of `CCCNc1nc(NCCC)c2c(n1)NCC2` [CXLIX, 2,4-Bis-(n-propyl)amino-7H-pyrrolidino[2,3-d]pyrimidine], the “MV MPR” value (1 mpk IV, 20% HPβCD, pH 4) is given as 175; the “MV MPR” value (1 mpk IV, 20% HPβCD, pH 6) was 263; the “MV MPR” value under setting [2] is recorded as 175; the “MV MPR” value under setting [4] was found to be 263. For the same compound, the “MV ΔMV” value is 93 (1 mpk IV, 20% HPβCD, pH 4) and 167 (1 mpk IV, 20% HPβCD, pH 6). Further, the “MV DMV” value turned out to be 93 under setting [2] and 167 under setting [4].
In the case of `CCCNc1nc(NCCC)nc(N(C)OCc2ccccc2)n1` [LIII, O-Benzyl-N-(4,6-bis-n-propylamino-[1,3,5]triazin-2-yl)-N-methyl-hydroxylamine], for the setting “1 mpk IV, 20% HPβCD, pH 4-6”, the “MV MPR” value was found to be 288 and the “MV ΔMV” value is given as 179.
Take `CON(C)c1nc(NCC(C)(C)C)nc(NCC(C)(C)C)n1.Cl` [XXXI]: under setting [2], the “MV DMV” value is 43 and the “MV MPR” value is recorded as 140.
